In patent US20030008234A1, “Optical data carrier comprising a cyanine dye as light-absorbent compound in the information layer” (priority 2001, published 2003):

Experiment: Solubility in TFP (2,2,3,3-tetrafluoropropanol)
Assay type: physicochemical

Solubility [%]	SMILES
5	CCN1CCS/C1=C/c1sc2ccccc2[n+]1C
> 2	CC(C)N(c1nn(C)/c(=N/C=C/C2=[N+](C)c3ccccc3C2(C)C)s1)C(C)C [Example 1]
5	CCN1CCS/C1=C/c1sc2ccccc2[n+]1C.[I-] [Example 2]
